# Measurements taken from US9486502B2, “Methods of administering interferon gamma to absorb fluid from the subretinal space” (The United States of America, as represented by the …, priority 2008, dated 2016).
# Assays:
# hfCHC cells = experiment: BrdU incorporation assay, human fetal choroidal cell proliferation; assay type: cell-based
# hfRPE cells [1] = experiment: BrdU incorporation assay, hfRPE proliferation; assay type: cell-based, human; details: for effect on hfRPE proliferation (BrdU incorporation): 0.5-80 ng/ml; for effect on the IFNγ effect on hfRPE proliferation: added one hour prior to IFNγ
# Protocol: BrdU incorporation was performed as described in Li, R. et al., 2007, Invest Ophthalmol Vis Sci, 48, 5722-5732, incorporated by reference in its entirety herein. IFNγ, TNFα, and IL-1β were obtained from Peprotech, Rocky Hill, N.J., and Universal Type I Interferon (cat: 11200-1) or human interferon beta la were from PBL biomedical laboratories (New Brunswick, N.J.). Cumulative effects were measured by adding VEGF165, EGF and bFGF (Peprotech), and PDGF-BB (R & D Systems) with IFNγ. Anti-human IFNγ R1 blocking antibody (R & D Systems, Minneapolis, Minn.), JAK inhibitor I, AG490, or JAK3 inhibitor II (EMD Biosciences, Gibbstown, N.J.) was added to the cells one hour prior to the addition of IFNγ. SFM was used as the negative control and SFM supplemented with 5% serum was used as positive control. After treatment for 48 hours, RPE cells were incubated with BrdU for 24 hours. The proliferation rate was evaluated using a Cell proliferation ELISA BrdU Kit (Roche, Ind.). Quadruplicate wells were used for each condition and the experiments were repeated at least two times using cell cultures from different donors. Cell viability was evaluated using a Live/Dead Viability/Cytotoxicity Kit (Invitrogen).
# hfRPE cells [2] = experiment: wound healing assay, hfRPE migration; assay type: cell-based, human; details: 48 hours, proliferation suppressed with mitomycin C
# Protocol: The wound healing assay was used to study the effects of inflammatory cytokines on hfRPE cell migration, as described previously in Li, R., et al. Invest Ophthalmol Vis Sci, 2007, 48, 5722-5732, incorporated herein by reference in its entirety. Cell proliferation was suppressed by incubation with 10 μg/ml mitomycin C (Sigma) for 2 hours before all migration experiments. A circular denuded area (7 mm in diameter) was made in each well using a custom designed cell scraper. After incubation with various inflammatory cytokines for 48 hours, cells were fixed with cold methanol and stained with ethidium homodimer-1 (EthD-1, Invitrogen) according to the manufacturer's instructions. Cell migration was quantified by counting the average number of cells that migrated into the denuded area in 16 microscope fields surrounding the circumference of the denuded area. Each condition was tested in triplicate and repeated using cells from different donors.
# hfRPE monolayers [3] = experiment: fluid transport (JV, TEP, RT) across hfRPE monolayers in modified Üssing chamber; assay type: cell-based, human; details: for effect on JV after P38 MAPK inhibitor: CFTR inhibitor added to basal bath after P38 MAPK inhibitor; for effect on the effects of IFNγ on JV: Rp-8-Br-cAMPS 2 μM pretreatment
# Description: Confluent monolayers of hfRPE cultured on transwells were mounted in a modified Üssing chamber and transepithelial water flow measurements (JV) were made with a capacitance probe technique as described previously in Maminishkis, A., et al., Invest Ophthalmol Vis Sci, 2006, 47, 3612-3624; Shi, G., et al., Invest Ophthalmol Vis Sci, 2008, 49, 4620-4630; Edelman, J. L., et al., Invest Ophthalmol Vis Sci, 1991, 32, 3033-3040; Jiang, C., et al., Science, 1993, 262, 424-427; and Maminishkis, A., et al., Invest Ophthalmol Vis Sci, 2002, 43, 3555-3566, each incorporated herein by reference in its entirety.
# Tissue viability was ascertained by recording transepithelial potential (TEP) and total tissue resistance (RT). It should be noted that the solution composition changes in this chamber were relatively slow (≈1-2 chamber volumes per minute) and the data sampling rate was once per minute, more than two orders of magnitude slower than the sampling rate in the electrophysiology chamber (see below). Therefore it was not possible to record fast changes, in seconds or minutes, in JV, TEP, or RT. After addition of IFNγ to the apical or basal baths, steady-state JV, TEP, and RT were recorded for 20-30 minutes. In control experiments, successive additions of IFNγ were made to test for the repeatability and reversibility of responses. To block IFNγ effects, RPE cells were incubated for 30-60 minutes with a blocking antibody against IFNγ R1, JAK inhibitor I, PKA inhibitors (H-89, EMD Biosciences; RP-8-Br-cAMPS, Sigma-Aldrich), nitric oxide synthase inhibitor (aminoguanidine hydrochloride, Sigma-Aldrich), P38 MAPK inhibitors (SB203580 or SB20290), or CHX. Other components of this signaling pathway were studied using P38 MAPK inhibitors (SB203580 and SB202190). Relatively specific Cl channel inhibitors, CFTRinh-172 or DIDS (EMD Biosciences, La Jolla, Calif.), were used to block cAMP or Ca^2+-activated Cl channels; experiments with CFTRinh-172 were performed as described in Muanprasat, C., et al., J Gen Physiol, 2004, 124, 125-137, incorporated herein by reference in its entirety. In chronic experiments, paired hfRPE tissues with matched RT values were incubated for 4-24 hours with IFNγ or CHX. The subsequent changes in JV, RT, and TEP were measured in Ringer's solution or serum free cell culture media as previously described in Shi, G., et al., Invest Ophthalmol Vis Sci, 2008 and Maminishkis, A., et al., Invest Ophthalmol Vis Sci, 2006, 47, 3612-3624, each incorporated herein by reference in its entirety. Intracellular levels of NO were elevated with 1-Hydroxy-2-oxo-3-(3-aminopropyl)-3-isopropyl-1-triazene (NOC-5, Enzo Life Sciences, Plymouth, Pa.). 8-Br-cGMP was purchased from Sigma-Aldrich.
# hfRPE monolayers [4] = experiment: electrophysiology of hfRPE monolayers (TEP, RT, VA, VB, RA/RB); assay type: cell-based, human
# Description: Equivalent circuit analysis and electrophysiological methods have been previously described in Quinn, R. H., et al., Invest Ophthalmol Vis Sci, 1992, 33, 3513-3527; Joseph D. P., et al., J Physiol, 1991, 435, 439-463; and Maminishkis, A., et al., 2006, Ophthalmol Vis Sci, 47, 3612-3624each incorporated herein by reference in its entirety.
# Briefly, confluent monolayers of cultured hfRPE were mounted on a nylon mesh support and clamped into a modified Üssing chamber that allowed the rapid exchange of Ringer's solution (≈10 chamber volumes per minute) and the measurement of fast electrical changes in seconds. The electrical connections to the apical and basal chambers were made with Ringer-agar bridges in series with calomel electrodes. Intracellular potentials were recorded with conventional microelectrodes, back-filled with 150 mM KCl, with resistances of 80 to 200 Ma The apical and basolateral membrane potentials (VA and VB) are calculated as the voltage differences between the intracellular microelectrode and the apical and basal bath electrodes, respectively. The resistances of the apical and basolateral membranes were designated RA and RB, respectively, and the transepithelial potential (TEP=VB-VA) is the voltage difference between the apical and basal bath electrodes. Epithelial resistance parameters were obtained by passing 4-μA bipolar current pulses (i) using Ag—AgCl electrodes, one located in the apical chamber and the other located in the basal chamber. The total transepithelial resistance (Rt) is calculated from the current-induced changes in TEP (Rt=ΔTEP/i). The apparent membrane resistance ratio (RA/RB) is calculated from the ratio of change in VA to change in VB (RA/RB=ΔVA/ΔVB).
# The control Ringer's solution for measurements of TEP and Rt in culture hfRPE contained 116 mM NaCl, 5 mM KCl, 26.2 mM NaHCO3, 1 mM NaH2PO4, 1 mM Mg Cl2, 1.8 mM CaCl2, 10 mM glucose, and 2 mM Taurine. The osmolarity of control Ringer's solution was 295 mOsm. The solutions were maintained at 35° C. and a pH of 7.4, and were bubbled with 10% O2, 5% CO2 and 85% N2. 8-Bromo-cAMP (or Dibutyryl cAMP), 8-Br-cGMP, and forskolin were obtained from Sigma-Aldrich.
# rat RPE = experiment: in vivo retinal re-attachment assay (OCT)
# Protocol: All animal experiments were conducted in compliance with the ARVO Statement for the use of Animals in Ophthalmic and Vision Research, and the protocol was approved by the Animal Care and Use Committee of the National Institutes of Health. The procedures have been described in detail in Maminishkis, A., et al., Invest Ophthalmol Vis Sci, 2006, 47, 3612-3624, incorporated by reference in its entirety herein. Briefly, retinal detachments were created in long-Evans rats by injecting 0.5 to 3 μl of modified phosphate-buffered saline (MPBS) Ringer's solution into the sub-retinal space (SRS), which separates the photoreceptor outer segments and the apical membrane of the RPE. In the control portion of each experiment (at 0-70 minutes after creation of the retinal detachment), the rate of change of bleb volume was measured. The control period of “constant” volume was defined by JV≦2 μl hr cm over at least 40 minutes. Any control injections that exceeded this threshold rate were rejected from subsequent analysis.
# IFNγ was dissolved in MPBS, mixed with Celluvisc® solution (1:1) and applied as eye-drops (0.4 mL). Optical coherence tomography (OCT) imaging (Institute of Applied Physics, Russian Academy of Science, Nizhniy Novgorod, Russia) was used to measure the time course of the detachment volume change.
# A previously tested in vivo rodent model of retinal detachment was used to measure the effect of IFNγ on re-absorption following retinal detachment, as described in Example 11 and in Maminishkis, A., et al., Invest Ophthalmol Vis Sci, 2002, 43, 3555-3566, incorporated herein by reference in its entirety. Initial detachment was created by injecting approximately 1 μl of osmotically-balanced, modified phosphate-buffered saline (MPBS) Ringer's solution into the extracellular space, i.e. the sub-retinal space (SRS). After stabilization of the detachment, IFNγ (40 μl of 100 ng/ml) was added to the anterior surface of the eye via eye drops (Celluvisc®). A series of 3D OCT images were recorded at different time points.
# [5] = CFTRinh−172 basal bath after IFNγ
molecule,measurement,setting,value
IL-1β: inflammatory cytokine obtained from Peprotech; ICM component,effect on hfCHC (human fetal choroidal) cell proliferation,hfCHC cells,significantly stimulated
same,effect on hfRPE proliferation (BrdU incorporation),hfRPE cells [1],no significant effect
same,effect on hfRPE cell migration,hfRPE cells [2],no significant effect
TNFα,effect on hfCHC (human fetal choroidal) cell proliferation,hfCHC cells,significantly stimulated
same,effect on hfRPE proliferation (BrdU incorporation),hfRPE cells [1],weak stimulatory effect
same,concentration at which the stimulatory effect reached statistical significance,hfRPE cells [1]; P <0.05,80 ng/mL
same,effect on hfRPE cell migration,hfRPE cells [2],no significant effect
JAK inhibitor I,effect on base level of fluid transport (JV),hfRPE monolayers [3]; JAK inhibitor I 5 μM alone,no significant effect
same,effect on IFNγ increase in JV,"hfRPE monolayers [3]; JAK inhibitor I 5 μM, 0.5-1 hours prior to IFNγ",significantly blocked
same,effect on the IFNγ effect on hfRPE proliferation,hfRPE cells [1],block
"COc1cc2ncnc(Nc3ccc(O)c(Br)c3)c2cc1OC [JAK3, reference compound]",effect on the IFNγ effect on hfRPE proliferation,hfRPE cells [1],not
O=C(O)c1ccc(/C=C2\SC(=S)N(c3cccc(C(F)(F)F)c3)C2=O)cc1 [CFTRinh−172],effect on NOC-5 induced increase in Jv,"hfRPE monolayers [3]; CFTR inhibitor 5 μM basal bath, NOC-5 250 μM, n=3",blocked
same,effect on IFNγ-induced fluid transport after H-89,hfRPE monolayers [3]; CFTR inhibitor added after H-89,no further effect
same,effect on JV after P38 MAPK inhibitor,hfRPE monolayers [3],further decrease
same,effect on JV after P38 MAPK inhibitor,hfRPE monolayers [3]; listed as CFTR inhibitor,further decreased
same,decrease of the IFNγ-induced JV increase,"hfRPE monolayers [3]; CFTRinh−172 5 μM basal bath, FIG. 14E",≈ 9.8 μl·cm^−2·hr^−1
same,mean JV after inhibitor in IFNγ-treated hfRPE,"hfRPE monolayers [3]; CFTRinh−172 5 μM, 11 experiments, from 16.6±1.2",6.8±1.0 μl·cm^−2·hr^−1
same,JV after inhibitor in 24 hour IFNγ-treated hfRPE,"hfRPE monolayers [3]; CFTRinh−172 5 μM, from 15.1, FIG. 14F",4.8 μl·cm^−2·hr^−1
same,decrease in JV,"hfRPE monolayers [3]; CFTRinh−172 added after IFNγ and basal DIDS, n=1",12.6 μl·cm^−2·hr^−1
same,baseline JV after inhibitor,"hfRPE monolayers [3]; CFTRinh−172 basal bath, no IFNγ, baseline 12.5 ±3.1, n=5",3.2 ±1.0 μl·cm^−2·hr^−1
same,Jv after CFTR inhibitor in 8-Br-cGMP-treated hfRPE,"hfRPE monolayers [3]; FIG. 21, from 19.5",11.5 μl·cm^−2·hr^−1
same,Jv after CFTR inhibitor in 8-Br-cGMP-treated hfRPE,"hfRPE monolayers [3]; four experiments, from 15.8±1.6",8.9±1.3 μl·cm^−2·hr^−1
same,effect on cAMP-induced electrical changes,hfRPE monolayers [4]; CFTRinh−172,blocked
same,effect on RA/RB,hfRPE monolayers [4]; [5],slight decrease
same,effect on RT,hfRPE monolayers [4]; [5],increased
same,effect on TEP,hfRPE monolayers [4]; [5],decreased
same,effect on both membrane potentials,hfRPE monolayers [4]; [5],hyperpolarize
Nc1ncnc2c1nc(Br)n2C1OC2COP(O)(=S)OC2C1O (stereo not shown) [Rp-8-Br-cAMPS],effect on the effects of IFNγ on JV,hfRPE monolayers [3],completely blocked
same,effect on the effects of IFNγ on JV,hfRPE monolayers [3]; listed as Rp-8-Br-cAMPs,blocked
same,effect on baseline JV,"hfRPE monolayers [3]; Rp-8-Br-cAMPS 2 μM, approximately 40 minutes",no effect
same,JV after Rp-8-Br-cAMPS,"hfRPE monolayers [3]; six experiments, steady-state baseline 8.9±1.2",10.4±2.0 μl·cm^−2·hr^−1
same,reduction in IFNγ-induced absorption rate,"rat RPE; PKA inhibitor alone injected into subretinal space, FIG. 23D",~40%
same,effect on IFNγ induced decrease in detachment volume,rat RPE; pre-injection of 50 μM PKA inhibitor alone,partially blocked
"N#C/C(=C\c1ccc(O)c(O)c1)C(=O)NCc1ccccc1 [AG490, reference compound]",effect on the IFNγ effect on hfRPE proliferation,hfRPE cells [1],block
